We go through 21 substances from patent publication US20240384268A1, “Oligonucleotides” (Hudson Institute of Medical Research, priority 2021, published 2024).

The target in this data set is T1, TLR8 (Homo sapiens, UniProt Q9NR97).
T1 sequence (Q9NR97 27-1041): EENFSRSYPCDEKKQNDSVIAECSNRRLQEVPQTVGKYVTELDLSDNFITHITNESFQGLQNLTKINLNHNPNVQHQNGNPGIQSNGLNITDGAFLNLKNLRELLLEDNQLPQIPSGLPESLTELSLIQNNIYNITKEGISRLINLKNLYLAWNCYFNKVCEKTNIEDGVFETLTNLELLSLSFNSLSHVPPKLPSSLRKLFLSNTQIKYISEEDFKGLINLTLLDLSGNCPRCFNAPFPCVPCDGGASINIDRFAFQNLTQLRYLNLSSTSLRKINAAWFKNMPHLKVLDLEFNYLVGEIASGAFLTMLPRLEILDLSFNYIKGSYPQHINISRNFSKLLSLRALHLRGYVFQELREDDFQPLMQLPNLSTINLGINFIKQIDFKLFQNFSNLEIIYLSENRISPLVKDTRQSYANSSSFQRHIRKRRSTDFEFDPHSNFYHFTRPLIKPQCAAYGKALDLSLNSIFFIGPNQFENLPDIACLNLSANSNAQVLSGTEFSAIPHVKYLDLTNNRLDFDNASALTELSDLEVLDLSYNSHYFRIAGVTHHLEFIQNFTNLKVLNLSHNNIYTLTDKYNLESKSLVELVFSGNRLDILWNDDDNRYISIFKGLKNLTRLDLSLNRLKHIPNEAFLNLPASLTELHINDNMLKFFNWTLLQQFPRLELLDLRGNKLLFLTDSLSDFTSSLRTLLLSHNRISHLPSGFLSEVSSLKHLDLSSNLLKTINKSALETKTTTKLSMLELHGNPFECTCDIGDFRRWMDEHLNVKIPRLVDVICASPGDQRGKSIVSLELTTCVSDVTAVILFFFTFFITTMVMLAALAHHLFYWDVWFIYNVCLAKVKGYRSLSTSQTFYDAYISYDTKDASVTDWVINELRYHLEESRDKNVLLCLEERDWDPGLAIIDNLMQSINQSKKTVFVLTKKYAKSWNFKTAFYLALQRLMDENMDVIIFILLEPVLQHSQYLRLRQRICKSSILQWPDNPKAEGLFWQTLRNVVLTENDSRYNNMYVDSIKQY
Briefly: HEK-TLR8 NF-κB-luciferase reporter, R848 or Motolimod stimulation (potentiation or inhibition). Type of data set: cell-based. Details: expressed in transfected cells; host or cells: 293XLhTLR8 (HEK293). The settings on record: for TLR8-500 nM: averaged NF-κB-Luciferase relative to R848: HEK-TLR8, 500 nM ASO, fold increase relative to R848 without ASO (Alharbi et al., 2020); for TLR8 100 nM: MOE-modified ASO at 100 nM; for TLR8 100 nM / TLR8 500 nM: averaged NF-κB-Luciferase relative to R848 condition (fold increase); for TLR8 500 nM: MOE-modified ASO at 500 nM. (In general: A reporter such as luciferase makes a cellular process visible.)

In the oligonucleotide strings, read from the 5' end, every base follows the letter of its sugar. An asterisk marks phosphorothioate; unmarked linkages are phosphodiester. Other units and linkages are bracketed, terminal groups are in braces. A string of capitals states the bases alone. d = 2'-deoxy (DNA); m = 2'-O-methyl

For “mA*mA*mG*mA*mU*T*A*T*C*T*T*C*T*T*T*mU*mA*mA*mU*mU (mA*mA*mG*mA*mU*dT*dA*dT*dC*dT*dT*dC*dT*dT*dT*mU*mA*mA*mU*mU) [[CDKN2B-AS1]2131]”, the “TLR8-500 nM: averaged NF-κB-Luciferase relative to R848” value is 5.62 fold. As to “mU*mU*mA*mA*mA*T*A*A*T*C*T*A*G*T*T*mU*mG*mA*mA*mG (UUAAATAATCTAGTTUGAAG; sugars from the 5' end m5 d10 m5, all phosphorothioate, methylation of C not given here) [[CDKN2B-AS1]132]”, the “TLR8-500 nM: averaged NF-κB-Luciferase relative to R848” value is 6.43 fold. Regarding “mU*mC*mU*mG*mG*T*C*C*C*A*T*C*C*C*T*mU*mC*mU*mG*mC (UCUGGTCCCATCCCTUCUGC; antisense; sugars from the 5' end m5 d10 m5, all phosphorothioate, methylation of C not given here) [[LINC-PINT]106]”, the “TLR8-500 nM: averaged NF-κB-Luciferase relative to R848” value is recorded as 5.25 fold. In the case of “mA*mG*mC*mC*mG*A*A*C*A*G*A*A*G*G*A*mG*mC*mG*mU*mC (AGCCGAACAGAAGGAGCGUC; sugars from the 5' end m5 d10 m5, all phosphorothioate, methylation of C not given here) [[LINC-PINT]587 KL]”, the “TLR8-500 nM: averaged NF-κB-Luciferase relative to R848” value is reported as 3.73 fold.

As to “mA*mA*mU*mU*mU*A*A*A*G*C*A*T*G*A*A*mU*mA*mU*mU*mA (mA*mA*mU*mU*mU*dA*dA*dA*dG*dC*dA*dT*dG*dA*dA*mU*mA*mU*mU*mA) [[CDKN2B-AS1]645]”, the “TLR8-500 nM: averaged NF-κB-Luciferase relative to R848” value worked out at 5.02 fold.

Take “mG*mA*mU*mU*mA*A*A*A*C*A*G*A*T*T*A*mA*mU*mA*mC*mA (mG*mA*mU*mU*mA*dA*dA*dA*dC*dA*dG*dA*dT*dT*dA*mA*mU*mA*mC*mA) [[CDKN2B-AS1]1773]”: the “TLR8-500 nM: averaged NF-κB-Luciferase relative to R848” value was determined as 1.48 fold.

As for “mU*mG*mA*mC*mA*T*T*T*C*G*T*G*G*C*T*mC*mC*mU*mA*mC (mU*mG*mA*mC*mA*dT*dT*dT*dC*dG*dT*dG*dG*dC*dT*mC*mC*mU*mA*mC; antisense) [[LINC-PINT]523 KL]”, the “TLR8-500 nM: averaged NF-κB-Luciferase relative to R848” value was 4.34 fold.

Consider “TCCGGCCTCGGAAGCTCTCT (antisense; 2'-MOE modified, pattern not given here) [MB21D1-168 MOE]”, for which the “TLR8 100 nM” value came to 0.816 and the “TLR8 500 nM” value was found to be 0.781. As for “mC*mC*mU*mA*mG*A*A*A*G*A*A*G*C*A*A*mA*mG*mA*mU*mU (mC*mC*mU*mA*mG*dA*dA*dA*dG*dA*dA*dG*dC*dA*dA*mA*mG*mA*mU*mU) [[CDKN2B-AS1]1522]”, the “TLR8-500 nM: averaged NF-κB-Luciferase relative to R848” value turned out to be 4.94 fold. The same measure, in the same setting: in the case of “mA*mA*mU*mA*mU*C*T*G*C*T*G*C*C*C*A*mC*mC*mU*mU*mC (mA*mA*mU*mA*mU*dC*dT*dG*dC*dT*dG*dC*dC*dC*dA*mC*mC*mU*mU*mC; antisense) [[CDKN2B-AS1]832]” it was 4.45 fold. Turning to “ATGCCATCCACTTGATAGGC (antisense; 2'-MOE modified, pattern not given here) [EGFR-2874 MOE]”, the “TLR8 100 nM” value worked out at 2.028 and the “TLR8 500 nM” value came to 2.025.

Take “mG*mA*mU*mG*mG*T*T*C*C*A*G*T*C*C*C*mU*mC*mU*mU*mC (GAUGGTTCCAGTCCCUCUUC; antisense; sugars from the 5' end m5 d10 m5, all phosphorothioate, methylation of C not given here) [[LINC-PINT]1497.1]”: the “TLR8-500 nM: averaged NF-κB-Luciferase relative to R848” value is 1.01 fold. As for “mU*mU*mG*mG*mC*C*T*G*T*G*G*A*T*G*C*mU*mU*mU*mG*mU (mU*mU*mG*mG*mC*dC*dT*dG*dT*dG*dG*dA*dT*dG*dC*mU*mU*mU*mG*mU) [[LINC-PINT]2673.1]”, the “TLR8-500 nM: averaged NF-κB-Luciferase relative to R848” value came to 0.94 fold. Regarding “GCTGACAAAGATTCACTGGT (antisense; 2'-MOE modified, pattern not given here) [HPRT-1353 MOE]”, the “TLR8 100 nM” value worked out at 1.475 and the “TLR8 500 nM” value is 3.067. Consider “mU*mG*mU*mU*mU*C*C*C*C*G*G*A*G*A*G*mC*mA*mA*mU*mG (UGUUUCCCCGGAGAGCAAUG; antisense; sugars from the 5' end m5 d10 m5, all phosphorothioate, methylation of C not given here) [[LINC-PINT]501 KL]”, for which the “TLR8-500 nM: averaged NF-κB-Luciferase relative to R848” value was determined as 2.04 fold. As for “mU*mC*mU*mC*mU*C*T*G*G*T*C*C*C*A*T*mC*mC*mC*mU*mU (mU*mC*mU*mC*mU*dC*dT*dG*dG*dT*dC*dC*dC*dA*dT*mC*mC*mC*mU*mU; antisense) [[LINC-PINT]110]”, the “TLR8-500 nM: averaged NF-κB-Luciferase relative to R848” value was found to be 11.27 fold. Still for that read-out and setting: to “mU*mC*mC*mC*mA*A*C*T*C*T*T*C*T*A*A*mC*mU*mC*mG*mU (mU*mC*mC*mC*mA*dA*dC*dT*dC*dT*dT*dC*dT*dA*dA*mC*mU*mC*mG*mU; antisense) [[LINC-PINT]1284 KL]” belongs 13.35 fold. Turning to “GCCCATCCATGAGGTCCTGG (antisense; 2'-MOE modified, pattern not given here) [CTNN2B-2545 MOE]”, the “TLR8 100 nM” value is 0.899 and the “TLR8 500 nM” value stood at 0.541. For “mC*mA*mU*mC*mC*C*T*T*C*T*G*C*T*G*C*mC*mA*mA*mG*mC (mC*mA*mU*mC*mC*dC*dT*dT*dC*dT*dG*dC*dT*dG*dC*mC*mA*mA*mG*mC; antisense) [[LINC-PINT]98]”, the “TLR8-500 nM: averaged NF-κB-Luciferase relative to R848” value came to 8.23 fold. With “mC*mC*mU*mU*mC*T*C*T*C*T*G*GT*C*C*mC*mA*mU*mC*mC (CCUUCTCTCTGGTCCCAUCC; antisense; chemistry not fully specified) [[LINC-PINT]113]”, the “TLR8-500 nM: averaged NF-κB-Luciferase relative to R848” value came out at 3.51 fold. Same read-out and setting: in the case of “mG*mU*mC*mC*mC*A*G*G*C*C*T*C*C*A*G*mU*mG*mU*mC*mU (mG*mU*mC*mC*mC*dA*dG*dG*dC*dC*dT*dC*dC*dA*dG*mU*mG*mU*mC*mU; antisense) [[CDKN2B-AS1]2223]” it was 2.17 fold.
